This is an account of results in article PMC12274739, “Differential substrate degradation by super-degron: EGFP in wild-type mouse cells, PD-1 requires CRBN humanization” (iScience, 2025).

The subject of test [1] is mouse PD-1-mCherry-super degron (SD) tag. Description: Degradation of SD-tagged mouse PD-1-mCherry in Jurkat cells, flow cytometry 24 h. Conditions: for Bottom, mCherry (mC): no reagent = 1; for Bottom, PD-1 (FITC): surface PD-1, no reagent = 1. Format: cell-based, human. From the text:
To identify a tag that could efficiently knock down mouse PD-1, we connected various degron tags to the C-terminus of PD-1, including IKZF1/3, Sall4, ZFP91, and SD, and generated Jurkat human T cell lymphoma cell lines that stably expressed the mouse PD-1-degron tag (Figure 1A). […] Therefore, a human cell line was used because it was thought that mouse CRBN would not degrade SD by thalidomide analogs. […] We also analyzed the degradation of total proteins using mCherry.
(C and D) The amount was standardized with the sample to which no reagent was added as 1. Concentrations of reagents were 0 (−), 5, 10, and 20 μM for IKZF minimal, IKZF full-length, and Sall4 tags and 0 (−), 0.5, 5 μM for SD tag. The dots indicate the results of the experiment for each of samples.
(In flow cytometry, cells or beads pass a laser one at a time.)

The target of test [2] is EGFP-SD (Aequorea victoria, UniProt P42212, F64L/H231L/S65T). The test is classed as cell-based, mouse. Conditions: stable; for DC50: read-out: DC50, EGFP-SD.
In test [3] the target is EGFP-IKZF (UniProt P42212+Q8C7D2, F64L/H231L/INS1V/S65T). The test is classed as cell-based, mouse. Conditions: read-out: DC50, EGFP-IKZF, stable.
EGFP-IKZF, sequence (Q8C7D2 whole entry, looked up, stated change not applied, other chains not shown): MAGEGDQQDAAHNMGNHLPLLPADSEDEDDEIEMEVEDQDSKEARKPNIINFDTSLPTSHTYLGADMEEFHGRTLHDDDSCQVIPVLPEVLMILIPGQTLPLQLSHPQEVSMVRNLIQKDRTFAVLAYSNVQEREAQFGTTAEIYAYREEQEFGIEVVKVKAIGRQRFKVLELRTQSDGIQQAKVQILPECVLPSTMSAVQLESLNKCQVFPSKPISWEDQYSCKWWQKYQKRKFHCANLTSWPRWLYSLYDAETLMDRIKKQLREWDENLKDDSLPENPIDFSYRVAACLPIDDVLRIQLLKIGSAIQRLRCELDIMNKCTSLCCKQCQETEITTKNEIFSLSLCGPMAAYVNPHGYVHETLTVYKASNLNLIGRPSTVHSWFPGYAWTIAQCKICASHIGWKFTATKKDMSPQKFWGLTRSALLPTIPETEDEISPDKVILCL
Test [4] addresses endogenous PD-1 tagged with SD (Mus musculus, UniProt Q02242+Q8C7D2). Description: Endogenous PD-1-SD on concanavalin A-stimulated spleen T cells, flow cytometry. Format: cell-based. The settings on record: for percentage of activated T cells characterized by FSC high: Con A-stimulated splenocytes; for PD-1 on CD8+ and CD4+ cells: Con A, 24 h after 1 μM POM or 0.1–1 μM IBR. How it is done: The dotted lines show an isotype control without IBR. […] The dotted lines show an isotype control without IBR. […] The black lines show isotype control without IBR. […] Red lines show the boundary between positive and negative. […] (B–J) IBR or solvent (−) was added to cultured splenocytes (B–G) or mESCs (H–J). […] The concentration is 0.1 μM in the rightmost bar in each group, and the left neighbor is a step dilution of one-tenth. Intensities of anti-PD-1-FITC on CD4^+ and CD8^+ T cells were measured by flow cytometry, and the geometric means of fluorescence intensities (MFI) were calculated. The MFI of the isotype control of anti-PD-1-FITC was subtracted from each MFI of anti-PD-1-FITC. The dots indicate the results of the experiment for each of the three samples from different individuals.
Pdcd1^SD/SD/Crbn^I391V/I391V spleen-derived T cells were stimulated in vitro with concanavalin A (Con A) followed by treatment with thalidomide analogs to examine PD-1 expression (Figures 6B–6D and S6A–S6C).
To determine whether the same phenomenon occurs in non-T cells, exogenous PD-1 degradation was examined in mESCs transfected with PD-1-SD expression vectors (Figures 6H–6J and S6E). […] We hypothesized that the degradation efficiency of membrane-localized proteins might be reduced in mouse-type CRBNs. Therefore, we expressed EGFP-SDs with membrane-localized peptides attached to their N-termini in mESCs and added IBR. The degradation efficiency of EGFP-SD with membrane-localization peptide[32] […] Therefore, Pdcd1^SD/SD/Crbn^I391V/I391V mice were used for further analyses.
Splenocytes were harvested after the mice were euthanized. Splenocytes were isolated in RPMI 1640 medium and collected using a 70 μm filter. After treatment with ACT solution to remove red blood cells, splenocyte culture was performed at a density of 2 × 10^6 cells/mL in RPMI 1640 with 10% FBS, Glutamax and penicillin-streptomycin and incubated at 37°C in a 5% CO2 containing atmosphere. To activate T cells, 0.5 μg/mL concanavalin A was added to the medium for 3 days to activate T cells.

For test [5], the target named is PD-1 tagged with SD in the brain (Mus musculus, UniProt Q02242+Q8C7D2). Description: PD-1 expression in brain, western blotting. Format: in vivo. Conditions: Pdcd1SD/SD/CrbnI391V/I391V mice. How it is done: Although the growth of GL-261 in the brain was inhibited, it is likely that the BBB was destroyed in cancer growth experiments in which GL-261 was transplanted.[34] Therefore, we conducted an experiment in which IBR was administered without the transplantation of brain tumor cell lines as a model for protein degradation experiments in the brain under normal conditions. […] Thus, this degron system can be used in the brain.
PD-1 tagged with SD in the brain, sequence (Q02242 with tags, fused parts or gaps): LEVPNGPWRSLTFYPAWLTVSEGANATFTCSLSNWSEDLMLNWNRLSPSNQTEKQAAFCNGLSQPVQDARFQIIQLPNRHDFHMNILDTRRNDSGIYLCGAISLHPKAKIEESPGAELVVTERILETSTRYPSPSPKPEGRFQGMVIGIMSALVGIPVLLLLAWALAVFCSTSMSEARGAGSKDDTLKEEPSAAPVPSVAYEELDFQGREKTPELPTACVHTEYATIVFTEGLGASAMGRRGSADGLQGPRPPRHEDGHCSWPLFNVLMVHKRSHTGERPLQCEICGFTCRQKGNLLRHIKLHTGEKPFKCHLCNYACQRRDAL
PD-1 tagged with SD in the brain, sequence (Q8C7D2 whole entry, the tested form may be a part): as the sequence (Q8C7D2 whole entry, looked up, stated change not applied, other chains not shown) above
PD-1 tagged with SD in the brain, sequence (Q3U1J4 whole entry partner, the tested form may be a part): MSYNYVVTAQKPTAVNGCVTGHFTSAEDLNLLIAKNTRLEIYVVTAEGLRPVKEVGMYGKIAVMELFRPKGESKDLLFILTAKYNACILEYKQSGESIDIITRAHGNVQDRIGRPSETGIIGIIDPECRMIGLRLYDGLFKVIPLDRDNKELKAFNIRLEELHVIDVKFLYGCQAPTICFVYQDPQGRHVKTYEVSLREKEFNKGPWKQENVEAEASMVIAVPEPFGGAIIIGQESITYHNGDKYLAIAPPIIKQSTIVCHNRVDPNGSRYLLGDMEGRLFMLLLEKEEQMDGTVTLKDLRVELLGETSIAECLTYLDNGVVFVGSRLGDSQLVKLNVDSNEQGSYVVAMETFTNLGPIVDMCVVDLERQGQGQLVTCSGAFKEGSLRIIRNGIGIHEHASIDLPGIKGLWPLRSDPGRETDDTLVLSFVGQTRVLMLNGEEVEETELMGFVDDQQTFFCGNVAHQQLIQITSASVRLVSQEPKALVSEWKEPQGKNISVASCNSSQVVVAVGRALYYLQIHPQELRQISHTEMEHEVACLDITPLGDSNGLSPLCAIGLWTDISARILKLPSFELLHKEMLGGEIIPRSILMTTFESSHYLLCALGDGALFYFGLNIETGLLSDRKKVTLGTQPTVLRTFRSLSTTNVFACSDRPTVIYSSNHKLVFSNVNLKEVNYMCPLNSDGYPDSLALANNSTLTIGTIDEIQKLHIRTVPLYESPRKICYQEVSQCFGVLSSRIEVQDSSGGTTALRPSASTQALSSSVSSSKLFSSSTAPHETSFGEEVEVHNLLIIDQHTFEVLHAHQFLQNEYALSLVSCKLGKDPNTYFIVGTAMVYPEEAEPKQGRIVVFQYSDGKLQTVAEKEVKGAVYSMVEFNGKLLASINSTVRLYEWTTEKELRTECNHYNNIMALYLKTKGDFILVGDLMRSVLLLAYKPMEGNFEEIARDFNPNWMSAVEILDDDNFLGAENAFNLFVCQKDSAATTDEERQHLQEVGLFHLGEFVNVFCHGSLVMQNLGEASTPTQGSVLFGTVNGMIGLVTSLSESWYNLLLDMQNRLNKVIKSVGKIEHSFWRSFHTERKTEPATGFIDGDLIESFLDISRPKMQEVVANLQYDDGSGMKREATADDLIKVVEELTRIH
Brain tissue was collected after the mice were deeply anesthetized and perfused with PBS to remove blood. They were immediately frozen in liquid nitrogen and homogenized in Nervous Tissue Protein Extraction buffer (TCI, Tokyo, Japan). After centrifuging the lysate at 20,000 g for 10 min at 4°C, heated at 98°C for 3 min with NuPAGE Sample Reducing Agent (Thermo Fisher Scientific) and NuPAGE LDS Sample buffer (Thermo Fisher Scientific), the supernatant was used for SDS-PAGE. SDS-PAGE was performed using a 5–12% polyacrylamide gel (FUJIFILM Wako) and NuPAGE MOPS SDS running buffer (Thermo Fisher Scientific) for 1 h, 120 V. One microgram of protein was loaded in each lane. […] After three washes with PBST, the secondary antibodies were detected using ImmunoStar (FUJIFILM Wako) and LAS 3000 (FUJIFILM). […]
(In western blotting, separated proteins are transferred to a membrane and probed.)

Where [6] appears, read: CrbnI391V/I391V mESCs, Figure 5E.
[7] abbreviates: Pdcd1SD/SD/CrbnI391V/I391V T cells.

Where “and” joins values, the source holds several entries; their conditions need not be identical. Equal entries are not always repeated. Where two headings read alike, the source gives them in different places.

endogenous PD-1 tagged with SD, sequence (Q02242 with tags, fused parts or gaps): as the sequence (Q02242 with tags, fused parts or gaps) above
endogenous PD-1 tagged with SD, sequence (Q8C7D2 whole entry): as the sequence (Q8C7D2 whole entry, looked up, stated change not applied, other chains not shown) above
endogenous PD-1 tagged with SD, sequence (Q3U1J4 whole entry partner): as the sequence (Q3U1J4 whole entry partner, the tested form may be a part) above

Turning to `Nc1cccc2c1C(=O)N(C1CCC(=O)NC1=O)C2=O` (stereo not shown) [POM, pomalidomide], in test [1], the “concentration showing the same effect on PD-1-SD” value worked out at 5 µM; the “Bottom, mCherry (mC)” value was 0.2421; the “Bottom, PD-1 (FITC)” value is 0.11 and 0.1083. Moreover, the DC50 in test [1] (read-out: DC50, PD-1 (FITC), surface PD-1) was 148 nM. In addition, in test [1] (read-out: DC50, mCherry (mC), mCherry), the DC50 was determined as 234 nM. Also, in test [2] (B6J-S1 mESCs, Figure 5D), the “Bottom, EGFP-SD” value was 0.01974; the “LogDC50, EGFP-SD” value is listed as -2.853 μM; the DC50 is 1.4 nM. In test [2] (setting [6]), the “Bottom, EGFP-SD” value was found to be 0.06229; the “LogDC50, EGFP-SD” value is on record as -2.993 μM; the DC50 stood at 1.02 nM. In addition, in test [3] (setting [6]), the DC50 is 5.11 nM. The “percentage of activated T cells characterized by FSC high” value in test [4] is listed as “not affected”. Also, in test [4] (setting [7]), the “PD-1 on CD8+ and CD4+ cells” value is given as “barely observed”. In addition, the “PD-1 amount in the brain vs vehicle” value in test [5] (20 mg/kg POM oral, after 24 h) is reported as “reduced to half the amount”.

With `O=C1CC[C@H](N2Cc3c(OCc4ccc(CN5CCOCC5)cc4)cccc3C2=O)C(=O)N1` [IBR, iberdomide], in test [1], the “concentration showing the same effect on PD-1-SD” value amounted to 0.5 µM; the “Bottom, mCherry (mC)” value is recorded as 0.2415; the “Bottom, PD-1 (FITC)” value is 0.1258. In test [2] (B6J-S1 mESCs, Figure 5B), the “Bottom, EGFP-SD” value came to 0.05422; the “LogDC50, EGFP-SD” value was -3.152 μM; the DC50 stood at 0.704 nM. Moreover, in test [2] (B6J-S1 mESCs, Figure 5D), the “Bottom, EGFP-SD” value came out at 0.02363; the “LogDC50, EGFP-SD” value was -3.579 μM; the DC50 came out at 0.264 nM. Besides, in test [2] (setting [6]), the “Bottom, EGFP-SD” value worked out at 0.04851; the “LogDC50, EGFP-SD” value is on record as -4.174 μM; the DC50 is 0.067 nM. Also, in test [3] (B6J-S1 mESCs, Figure 5B), the DC50 was 29.1 nM. Also, the DC50 in test [3] (setting [6]) was found to be 0.639 nM. The “percentage of activated T cells characterized by FSC high” value in test [4] is on record as “not affected”. The PD-1 degradation result in test [4] (Pdcd1SD/SD/Crbn+/+ T cells) was “barely degraded”. Further, the PD-1 removal result in test [4] (Pdcd1SD/SD/CrbnI391V/I391V T cells, 10^−2 μM and 10^−3 μM IBR) is on record as “mostly removed”. Further, the “PD-1 on CD8+ and CD4+ cells” value in test [4] (setting [7]) is “barely observed”. The “PD-1 expression in the brain” value in test [5] (IBR 10 mg/kg oral, 24 h) is reported as “no changes in PD-1 expression in the brain”.
